Values of other authors in US20150209375A1, “POSOLOGY AND ADMINISTRATION OF GLUCOCORTICOID BASED COMPOSITIONS” (DuoCort Pharma AB, priority 2010, published 2015).

Conditions: Lennernäs et al 2008

BCS class (Amidon et al 1995): BCS class II
extraction: low extraction drug
Compound: C[C@]12CCC(=O)C=C1CC[C@@H]1[C@@H]2[C@@H](O)C[C@@]2(C)[C@H]1CC[C@]2(O)C(=O)CO [Hydrocortisone]
